Experimental data as given in publication PMC10227015, “From a drug repositioning to a structure-based drug design approach to tackle acute lymphoblastic leukemia” (Nature Communications, 2023).
Read-outs that look alike come from different tables or passages of the source.

Tests used:
dCK-C3S-S74E = assay: Enzymatic assay (PK/LDH coupled), dC phosphorylation by dCK in the presence of ATP; assay type: biochemical, human
In short: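 His-purified dCK-C3S-S74E (100 nM, or 50 nM where indicated) phosphorylated 100 µM dC with 1 mM ATP in 50 mM HEPES pH 7.5, 5 mM MgCl2, 1 mM DTT, 100 mM KCl, coupled via PK/LDH/PEP/300 µM NADH. NADH fluorescence decrease (ex 337/em 460 nm) gave velocities normalized to drug-free control; IC50 by nonlinear regression, triplicates.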

CCRF-CEM cell line = assay: dCK cellular assay: CCRF-CEM proliferation in the presence of dT and dC; assay type: cell-based, human; conditions: for activity at 0.078 µM: 78 nM; for activity at 0.156 µM: 156 nM; for activity at 0.312 µM: 312 nM; for activity at 0.625 µM: 625 nM; for activity at 1.25 µM: 1250 nM; for activity at 2.5 µM: 2500 nM
In short: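 Two conditions in T-ALL CCRF-CEM cells: compound only, and compound with thymidine blocking de novo synthesis and deoxycytidine rescuing via dCK. Metabolic dye fluorescence (560/590 nm) gives % proliferation vs DMSO; IC50s, mean ± SD of at least three triplicate runs.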

[1] = Homo sapiens, CCRF-CEM, dT 200 µM + dC 1 µM, read-out: Cell proliferation of the CCRF-CEM cell line Mean (% prolif)
[2] = Homo sapiens, CCRF-CEM, dT 200 µM + dC 1 µM, 72 h, read-out: IC50 cell proliferation (dCK cellular assay)
[3] = Homo sapiens, read-out: dCK CELLULAR ASSAY IC50 (nM), CCRF-CEM, 200 µM dT and 1 µM dC, read-out: dCK […] ASSAY IC50

Sequence of dCK-C3S-S74E (P27707 whole entry S74E, form open): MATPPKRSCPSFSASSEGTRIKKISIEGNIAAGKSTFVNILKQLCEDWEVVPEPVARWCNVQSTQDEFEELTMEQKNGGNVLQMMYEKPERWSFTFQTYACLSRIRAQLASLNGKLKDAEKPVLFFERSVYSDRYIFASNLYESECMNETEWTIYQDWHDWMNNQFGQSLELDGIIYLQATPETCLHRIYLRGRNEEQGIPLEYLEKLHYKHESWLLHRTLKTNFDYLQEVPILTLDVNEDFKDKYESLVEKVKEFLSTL

Structure (SMILES)	Enzymatic activity (ATP) Mean (% activity) (dCK-C3S-S74E; 0.02 µM) [%]	Enzymatic activity (ATP) Mean (% activity) (dCK-C3S-S74E; 0.04 µM) [%]	Enzymatic activity (ATP) Mean (% activity) (dCK-C3S-S74E; 0.08 µM) [%]	Enzymatic activity (ATP) Mean (% activity) (dCK-C3S-S74E; 0.16 µM) [%]	Enzymatic activity (ATP) Mean (% activity) (dCK-C3S-S74E; 0.31 µM) [%]	Enzymatic activity (ATP) Mean (% activity) (dCK-C3S-S74E; 0.63 µM) [%]	Enzymatic activity (ATP) Mean (% activity) (dCK-C3S-S74E; 1.25 µM) [%]	Enzymatic activity (ATP) Mean (% activity) (dCK-C3S-S74E; 2.5 µM) [%]	Enzymatic activity (ATP) Mean (% activity) (dCK-C3S-S74E; 5 µM) [%]	activity at 0.078 µM (CCRF-CEM cell line; [1]) [%]	activity at 0.156 µM (CCRF-CEM cell line; [1]) [%]	activity at 0.312 µM (CCRF-CEM cell line; [1]) [%]	activity at 0.625 µM (CCRF-CEM cell line; [1]) [%]	activity at 1.25 µM (CCRF-CEM cell line; [1]) [%]	activity at 2.5 µM (CCRF-CEM cell line; [1]) [%]	IC50 (CCRF-CEM cell line; [2]) [nM]	IC50 (CCRF-CEM cell line; [3]) [nM]	further results
CCCN(c1nc(-c2nc(N)cc(N)n2)cs1)c1cc(-c2ccc(CCN3CCN(C)CC3)nc2)ccc1C [OR0602]	88.7	81.1	60.0	23.6	0.751	4.3	6.6	6.1	4.8	58.6	47.4	36.8	27.7	20.9	12.7	130		IC50 (dCK-C3S-S74E; ATP, technical limit of the assay, read-out: enzymatic inhibition IC50): 77 nM; activity at 0.004875 µM (CCRF-CEM cell line; Homo sapiens, CCRF-CEM, 4.875 nM, dT 200 µM + dC 1 µM, read-out: Cell proliferation of the CCRF-CEM cell line Mean (% prolif)): 91.9%; activity at 0.00975 µM (CCRF-CEM cell line; Homo sapiens, CCRF-CEM, 9.75 nM, dT 200 µM + dC 1 µM, read-out: Cell proliferation of the CCRF-CEM cell line Mean (% prolif)): 88%; activity at 0.0195 µM (CCRF-CEM cell line; Homo sapiens, CCRF-CEM, 19.5 nM, dT 200 µM + dC 1 µM, read-out: Cell proliferation of the CCRF-CEM cell line Mean (% prolif)): 81.5%; activity at 0.039 µM (CCRF-CEM cell line; Homo sapiens, CCRF-CEM, 39 nM, dT 200 µM + dC 1 µM, read-out: Cell proliferation of the CCRF-CEM cell line Mean (% prolif)): 67.1%; fold improvement of cellular IC50 (CCRF-CEM cell line; versus the preceding compound of the optimization): ~ 2.4 fold
CCCN(c1nc(-c2nc(N)cc(N)n2)cs1)c1cc(-c2ccc(S(=O)(=O)N3CCN(C)CC3)c(OC)c2)ccc1C [OR0635]	74.5	82.4	61.6	15.4	4.7	4.6	2.0	1.6								15	15.4 ± 10	Enzymatic activity (ATP) Mean (% activity) (dCK-C3S-S74E; 0.01 µM): 71.4%; IC50 (dCK-C3S-S74E; presence of ATP, [dCK] = 50 nM (footnote A), read-out: ENZYMATIC ASSAY IC50): 66 ± 11 nM; activity at 0.00017 µM (CCRF-CEM cell line; Homo sapiens, CCRF-CEM, 0.17 nM, dT 200 µM + dC 1 µM, read-out: Cell proliferation of the CCRF-CEM cell line Mean (% prolif)): 97%; activity at 0.0005 µM (CCRF-CEM cell line; Homo sapiens, CCRF-CEM, 0.5 nM, dT 200 µM + dC 1 µM, read-out: Cell proliferation of the CCRF-CEM cell line Mean (% prolif)): 85.1%; activity at 0.0015 µM (CCRF-CEM cell line; Homo sapiens, CCRF-CEM, 1.5 nM, dT 200 µM + dC 1 µM, read-out: Cell proliferation of the CCRF-CEM cell line Mean (% prolif)): 74.1%; activity at 0.0046 µM (CCRF-CEM cell line; Homo sapiens, CCRF-CEM, 4.6 nM, dT 200 µM + dC 1 µM, read-out: Cell proliferation of the CCRF-CEM cell line Mean (% prolif)): 62.3%; activity at 0.014 µM (CCRF-CEM cell line; Homo sapiens, CCRF-CEM, 14 nM, dT 200 µM + dC 1 µM, read-out: Cell proliferation of the CCRF-CEM cell line Mean (% prolif)): 48.1%; activity at 0.041 µM (CCRF-CEM cell line; Homo sapiens, CCRF-CEM, 41 nM, dT 200 µM + dC 1 µM, read-out: Cell proliferation of the CCRF-CEM cell line Mean (% prolif)): 35.9%; activity at 0.123 µM (CCRF-CEM cell line; Homo sapiens, CCRF-CEM, 123 nM, dT 200 µM + dC 1 µM, read-out: Cell proliferation of the CCRF-CEM cell line Mean (% prolif)): 24.4%; activity at 0.37 µM (CCRF-CEM cell line; Homo sapiens, CCRF-CEM, 370 nM, dT 200 µM + dC 1 µM, read-out: Cell proliferation of the CCRF-CEM cell line Mean (% prolif)): 17.8%; activity at 1.111 µM (CCRF-CEM cell line; Homo sapiens, CCRF-CEM, 1111 nM, dT 200 µM + dC 1 µM, read-out: Cell proliferation of the CCRF-CEM cell line Mean (% prolif)): 14.8%; activity at 3.333 µM (CCRF-CEM cell line; Homo sapiens, CCRF-CEM, 3333 nM, dT 200 µM + dC 1 µM, read-out: Cell proliferation of the CCRF-CEM cell line Mean (% prolif)): 10.3%; IC50 (CCRF-CEM cell line; Homo sapiens, Figure 2a, CCRF-CEM cell line, mean, read-out: IC50 (nM) (Cell Prolif)): 14 nM
Cc1ccc(NC(=O)c2ccc(CN3CCN(C)CC3)cc2)cc1Nc1nc(-c2nc(N)cc(N)n2)cs1 [dCKi2, N-(3-((4-(4,6-diaminopyrimidin-2-yl)thiazol-2-yl)amino)-4-methylphenyl)-4-((4-methylpiperazin-1-yl)methyl)benzamide]				97.2	85.8	62.1	35.4	16.5	3.9	95.9	91.9	100	95.6	94.5	86		8910 ± 3340	Enzymatic activity (ATP) Mean (% activity) (dCK-C3S-S74E; 10 µM): 3.9%; Enzymatic activity (ATP) Mean (% activity) (dCK-C3S-S74E; 20 µM): 2.6%; Enzymatic activity (ATP) Mean (% activity) (dCK-C3S-S74E; 40 µM): 5.2%; IC50 (dCK-C3S-S74E; presence of ATP, [dCK] = 100 nM, read-out: ENZYMATIC ASSAY IC50): 903 ± 37 nM; activity at 5 µM (CCRF-CEM cell line; Homo sapiens, CCRF-CEM, 5000 nM, dT 200 µM + dC 1 µM, read-out: Cell proliferation of the CCRF-CEM cell line Mean (% prolif)): 58.8%; activity at 10 µM (CCRF-CEM cell line; Homo sapiens, CCRF-CEM, 10000 nM, dT 200 µM + dC 1 µM, read-out: Cell proliferation of the CCRF-CEM cell line Mean (% prolif)): 29.6%; activity at 20 µM (CCRF-CEM cell line; Homo sapiens, CCRF-CEM, 20000 nM, dT 200 µM + dC 1 µM, read-out: Cell proliferation of the CCRF-CEM cell line Mean (% prolif)): 14%; activity at 40 µM (CCRF-CEM cell line; Homo sapiens, CCRF-CEM, 40000 nM, dT 200 µM + dC 1 µM, read-out: Cell proliferation of the CCRF-CEM cell line Mean (% prolif)): 6.8%; activity at 10 µM (CCRF-CEM cell line; Homo sapiens, CCRF-CEM, compound 10 µM + dT 111 µM + dC 1 µM, 72 h, read-out: Cell proliferation of the CCRF-CEM cell line Mean (% prolif)): 42.3%; IC50 (CCRF-CEM cell line; Homo sapiens, CCRF-CEM, dT 200 µM + dC 1 µM, 72 h, read-out: IC50 cell proliferation): 8900 nM
